Measured values from ChEMBL document CHEMBL1145572, “Analogues of N-hydroxy-N'-phenylthiourea and N-hydroxy-N'-phenylurea as inhibitors of tyrosinase and melanin formation” (Bioorg Med Chem Lett, 2008).
Calls of active or inactive are those of the source. The calls are words filed in the database; no cut-off is given here.

Legend:
B16 [1] = assay: Inhibition of melanin production in mouse B16 cells at 100 uM; assay type: functional
Tyrosinase = target: T1, Tyrosinase (Agaricus bisporus, UniProt O42713)
T1 sequence (O42713 whole entry): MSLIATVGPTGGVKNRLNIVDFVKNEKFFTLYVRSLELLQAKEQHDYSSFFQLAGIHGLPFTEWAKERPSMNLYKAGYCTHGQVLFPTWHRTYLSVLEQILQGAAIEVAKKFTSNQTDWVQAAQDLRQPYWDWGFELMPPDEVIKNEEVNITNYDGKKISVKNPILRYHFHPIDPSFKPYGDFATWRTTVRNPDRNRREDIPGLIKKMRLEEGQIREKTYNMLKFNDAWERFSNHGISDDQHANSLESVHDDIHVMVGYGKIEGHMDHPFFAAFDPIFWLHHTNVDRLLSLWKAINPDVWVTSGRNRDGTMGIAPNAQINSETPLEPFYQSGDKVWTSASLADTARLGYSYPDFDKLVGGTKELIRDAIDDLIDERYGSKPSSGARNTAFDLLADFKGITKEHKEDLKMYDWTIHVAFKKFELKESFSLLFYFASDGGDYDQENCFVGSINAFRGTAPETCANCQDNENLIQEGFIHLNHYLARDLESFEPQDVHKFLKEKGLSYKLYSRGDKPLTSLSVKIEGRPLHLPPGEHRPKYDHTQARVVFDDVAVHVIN
Description: Inhibition of mushroom tyrosinase

B16 [2] = assay: Cytotoxicity against mouse B16 cells at 100 uM; assay type: functional, cell-based
B16 [3] = assay: Inhibition of melanin production in mouse B16 cells at 50 uM; assay type: functional

SMILES | IC50 (Tyrosinase) [µM] | inhibition at 100 µM (B16 [1]) [%] | Activity (B16 [2]) | Activity (B16 [1]) | inhibition at 50 µM (B16 [3]) [%]
CN(O)C(=O)Nc1ccc([N+](=O)[O-])cc1 | 770 | 82 | inactive |  | 
CC(C)(C)[Si](C)(C)ONC(=O)Nc1ccccc1 | 70 |  | inactive | inactive | 
CONC(=S)Nc1ccc([N+](=O)[O-])cc1 | > 1000 |  | inactive |  | 75.5
CN(O)C(=O)Nc1ccccc1 | > 1000 |  | inactive | inactive | 
CCCCOc1ccc(NC(=O)NO)cc1 | > 1000 |  | inactive | inactive | 
OC[C@H]1O[C@@H](Oc2ccc(O)cc2)[C@H](O)[C@@H](O)[C@@H]1O [ARBUTIN] |  | 43.8 |  |  | 
O=C(NO)Nc1ccc(OCc2ccccc2)cc1 | 6.3 |  | inactive | inactive | 
CONC(=S)Nc1ccc2ccccc2c1 | 26 | 85 | inactive |  | 
O=C(NO)Nc1ccc([N+](=O)[O-])cc1 | 2.6 | 86 | inactive |  | 
O=C(NO)Nc1ccc(Br)cc1 | 2.7 | 75.5 | inactive |  | 
COc1ccc(NC(=O)NO)c(OC)c1 | > 1000 |  | inactive | inactive | 
COc1ccc(NC(=O)NO)cc1 | 32 |  | inactive | inactive | 
O=C(NO)Nc1ccc(NC(=O)NO)cc1 | 27 | 66 | inactive |  | 
CN(O)C(=O)N(C)c1ccccc1 | > 1000 |  | inactive |  | 
Oc1ccc(O)cc1 [HYDROQUINONE] | 37 |  |  |  | 

Further lines, with some results ahead:

IC50 (Tyrosinase) [µM] | SMILES | inhibition at 100 µM (B16 [1]) [%] | Activity (B16 [2]) | Activity (B16 [1]) | inhibition at 50 µM (B16 [3]) [%]
> 1000 | CONC(=O)N(C)c1ccccc1 |  | inactive |  | 
170 | CC(=O)N(O)C(=O)Nc1ccccc1 |  | inactive |  | 
> 1000 | NC(=O)Nc1ccccc1 |  |  | inactive | 
> 1000 | CN(O)C(=O)Nc1ccc(Br)cc1 |  | inactive | inactive | 
> 1000 | ONC(=S)Nc1ccccc1 |  | inactive | inactive | 
> 1000 | CONC(=O)Nc1ccccc1 |  | inactive | inactive | 
0.29 | O=C(NO)Nc1ccccc1 | 78 | inactive |  | 
41 | O=C(NO)Nc1ccc(O)cc1 | 19 | inactive |  | 
4.3 | O=C(NO)Nc1ccc(C(F)(F)F)cc1 | 79.3 | inactive |  | 
16 | CN(C(=O)NO)c1ccccc1 |  | inactive |  | 
